Measured values reported in article PMC8607231, “Generation of KS-133 as a Novel Bicyclic Peptide with a Potent and Selective VIPR2 Antagonist Activity that Counteracts Cognitive Decline in a Mouse Model of Psychiatric Disorders” (Frontiers in Pharmacology, 2021).
Where a SMILES comes first, the peptide text is derived from it. Bridges are numbered along the chain shown (N, C = ends).

Legend:
[1] = test system: VIPR2 activation-induced phosphorylation of CREB; test: Western blot of pCREB in prefrontal cortex of neonatal mice after s.c. injection; format: in vivo, mouse; settings: ICR mice at P12, KS-133 1 nmol/g s.c. simultaneously with Ro 25-1553 0.4 nmol/g, 1 h after injection
Procedure: (§1) For western blot analysis, ICR neonatal mice at P12 (7–10 g body weight) were subcutaneously (s.c.) injected with KS-133 (1 nmol/g) and Ro 25-1553 (0.4 nmol/g, Peptide Institute, Inc. Osaka, Japan), a selective VIPR2 agonist ([Gourlet et al., 1997]; [Harmar et al., 2012]), and adult C57BL/6J mice at 8 weeks of age (20–30 g body weight) were intranasally (i.n.) injected with KS-133 (20 nmol/mouse) and BAY 55-9837 (20 µg/mouse, Tocris Bioscience, Bristol, United Kingdom), another selective VIPR2 agonist ([Tsutsumi et al., 2002]; [Tian et al., 2019]). The dosages of these drugs were determined in a preliminary experiment using the change in phosphorylation of cAMP-response element-binding protein (CREB) as an index. Ro 25-1553 was dissolved in phosphate-buffered saline (PBS) and BAY 55-9837 was dissolved in distilled water. KS-133 was dissolved in saline with 1% dimethyl sulfoxide (DMSO; #13445-74, Nacalai Tesque, Inc., Kyoto, Japan) for s.c. injection or saline with 5% DMSO and 5 mg/ml poly-L-arginine (#P7762, Sigma-Aldrich, St. Louis, MO, United States) for i.n. injection. […]
(§2) FIGURE 4 Effects of subcutaneous (A) and intranasal (B) administration of KS-133 on VIPR2 activation-induced phosphorylation of CREB in the prefrontal cortex of mice. Phospho-CREB (pCREB), total CREB, and β-actin levels were analyzed by western blotting. […]

[2] = test system: VIPR2 activation-induced phosphorylation of CREB; test: Western blot of pCREB in prefrontal cortex of adult mice after i.n. injection; format: in vivo; settings: mice at 8 weeks, KS-133 20 nmol/mouse i.n. with BAY 55-9837 20 µg/mouse, 45 min after injection
Procedure: as §1, §2

SMILES: CC[C@H](C)[C@H](NC(=O)[C@H](CC(C)C)NC(=O)[C@@H]1CC(=O)NCCCC[C@@H]2NC(=O)[C@@H]3CCCN3C(=O)[C@H](CC(C)C)NC(=O)[C@H](Cc3ccc(O)cc3)NC(=O)[C@@H]3CCCN3C(=O)[C@@H]3CCCN3C(=O)[C@@H](NC(C)=O)CSSC[C@H](NC(=O)[C@H](CC(C)C)NC(=O)[C@H](Cc3ccc(O)cc3)NC2=O)C(=O)N1)C(N)=O [KS-133, Ac-c[Cys-Pro-Pro-Tyr-Leu-Pro-c(Lys-Tyr-Leu-Cys]-Asp)-Leu-Ile-NH2] (Ac-CPPYLPKYLCDLI-NH2; disulfide 1-10; lactam 7-11)
- Effect on Ro 25-1553-induced increase in CREB phosphorylation [1]: suppressed the Ro 25-1553-induced increase in CREB phosphorylation
- Effect on BAY 55-9837-induced increase in phosphorylated CREB [2]: blocked
